For this assay, the system named is Human SW620 colon tumor cells. Put plainly: alamarBlue cell viability (cytotoxicity) assay, SW620. It is filed as cell-based. The conditions noted are these: SW-620, 48 h, SW620 cell line, two days incubation, alamarBlue fluorescence. On the procedure: Human SW620 colon tumor cells are cultivated using 10% FCS/DMEM (Invitrogen) medium. The cells are plated into 384 well plates at a density of 8000 cells per well in a volume of 50 μL. The cells are placed in a 37° C. incubator and allowed to adhere overnight. Test compounds are added to the cells in a volume of 500 nL (final DMSO concentration in assay is 1%). Serial dilutions of the test compound are added (the top concentration of compound is 10 micromolar (final assay concentration) followed by 11 two fold dilutions. The cells are incubated for a further two days. A solution (50 μL) comprised of 20% alamarBlue™ (Biosource International, Inc.) and 80% assay medium is added to each well and the plates are incubated at 37° C. for a further 4 hours. The plates are read by fluorescence (530 nm excitation, 580 nm emission) on an Acquest reader (LJL Biosystems). The IC50 is defined as the concentration of a test compound at the end of the incubation period, which leads to 50% of cell viability per well compared with the control (concentration at semi-maximum inhibition of cell growth).

IC50 data for one compound are collected here from patent US7125997B2, “Differential tumor cytotoxicity compounds and compositions” (IRM LLC, priority 2002, dated 2006).

pIC50: −log10 of the molar value.

`O=C(Nc1ccc(N2CCOCC2)cc1)c1ccc(Nc2ccc(OC(F)(F)F)cc2)cc1` [Example 1, N-(4-Morpholin-4-yl-phenyl)-4-(4-trifluoromethoxy-phenylamino)-benzamide]: the negative logarithm of the IC50 (pIC50) was 7.59.
